From patent publication US20240174980A1, “PROCESS FOR MANUFACTURE OF A COMPOSITION FOR THE TREATMENT OF OSTEOARTHRITIS IN A SUBJECT” (STEM CELLX EUROPE KFT, priority 2021, published 2024)

Tested on: GADD45, CEBPb and MMP13 expression in differentiating canine MSCs
Test: Expression of hypertrophic chondrocyte markers (relative RNA levels) during chondrogenic differentiation
Type: cell-based
Conditions: relative RNA levels at days 10 and 24 of chondrogenic differentiation
Experimental: (§1) 1B depicts the experiment in which we added 30 ng/ml kynurenine to the differentiating MSCs to examine its effect on the markers of hypertrophic chondrocytes. In the experiment, we measured the expression of the two main regulatory transcription factors of hypertrophic chondrocyte differentiation, factors GADD45 and CEBPb, and of their target, matrix metalloproteinase-13 (MMP13), by measuring their relative RNA levels on days 10 (early) and 24 (mature) of chondrogenic differentiation.
as §1, with “2B” for “1B”, “50” for “30”, “THBS1” for “kynurenine”
During the analysis, first we quantified the levels of KYNA produced in canine AD-MSCs derived from 8 independent donations by ELISA in passage 3 cultures. […]
In another analysis, we quantified the levels of THBS1 produced in the AD-MSCs derived from 8 independent donations by ELISA in passage 3 cultures. […]

Compound	Effect on hypertrophic chondrocyte phenotype (expression of GADD45, CEBPb and MMP13) (30 ng/ml KYNA added at day 7)	Effect on hypertrophic chondrocyte phenotype (expression of GADD45, CEBPb and MMP13) (50 ng/ml THBS1 added at day 7)
Nc1ccccc1C(=O)CC(N)C(=O)O (centres unmarked) [KYNA, kynurenine]	able to suppress the hypertrophic chondrocyte phenotype	–
THBS1: Thrombospondin 1, adhesive glycoprotein encoded by the THBS1 gene, added to differentiating MSCs at 50 ng/ml	–	sufficient to suppress the hypertrophic chondrocyte phenotype
